Assay results taken from patent US12161628B2, “Combination therapy” (Medivation Prostate Therapeutics LLC, priority 2015, dated 2024).
Several values for one entry are separate records, joined by “and”; a condition that tells them apart may be missing. Identical values can stand only once. Like-named read-outs stand apart in the source and are kept apart here.

Assays:
clinical = conditions: human, in vivo; for Vd/F: Vz/F
Description: (§1) For all subjects in the rifampin treatment arm, the last quantifiable enzalutamide concentration was measured prior to the end of the rifampin dosing period (up to 13 days after enzalutamide dosing).
(§2) It should be noted that AUCs could only be accurately determined for 4 subjects in the enzalutamide treatment arm (treatment arm 1) and 6 subjects in the enzalutamide+rifampin treatment arm (treatment arm 2).

[1] = human, in vivo
Description: as §1, §2

CYP3A4 = conditions: in vivo
Description: Data handling. […] In addition, for many subjects, urine samples taken post enzalutamide dose were not taken within 180 minutes of the ‘virtual’ enzalutamide dosing time (i.e., day 1 enzalutamide dosing time [enzalutamide treatment arm{treatment arm 1}] and day 8 enzalutamide dosing time [enzalutamide+rifampin treatment arm {treatment arm 2}]) and/or pre-dose of rifampin. The 6β-hydroxycortisol and cortisol concentrations of these urine samples and obtained 6β-hydroxycortisol/cortisol ratios were excluded from summary statistics.

[2] = Rifampin plasma pharmacokinetics on day 8 after multiple doses of 600 mg once daily; assay type: in vivo, human (healthy volunteers); conditions: multiple doses of 600 mg rifampin once daily; for AUC / concentration at 2 h / Cmax / Tmax: human, plasma, oral, 600 mg
Description: Data handling. The actual sampling time of enzalutamide and its metabolites for 6 subjects (7 samples in total), and the actual sampling time of the 2-hour rifampin sample of subject 10002 on Day 21 deviated more than 10% of the scheduled time point.
In FIG. 7, individual and mean rifampin C2H plasma concentrations that were obtained during the entire dosing period of 21 days are presented.
Median tmax was reached 2 hours post-dose.

[3] = Drug-drug interaction trial: plasma pharmacokinetics of enzalutamide, M1, M2 and sum of enzalutamide plus M2 after single 160 mg enzalutamide alone or with multiple doses of rifampin; conditions: for MPR (MWC): metabolite versus parent ratio (molecular weight corrected), Mean: based on AUCinf;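 as to all read-outs here: human plasma pharmacokinetics in a two-arm drug interaction trial comparing enzalutamide given alone against enzalutamide given with rifampin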
Description: as §1, §2

[4] = plasma, Enzalutamide (Reference), single 160 mg dose alone
[5] = plasma, single dose 160 mg enzalutamide alone
[6] = plasma, single dose 160 mg enzalutamide in the presence of multiple doses of 600 mg rifampin once daily (Test)

CNC(=O)c1ccc(N2C(=S)N(c3ccc(C#N)c(C(F)(F)F)c3)C(=O)C2(C)C)cc1F [Enzalutamide, 4-{3-[4-cyano-3-(trifluoromethyl)phenyl]-5,5-dimethyl-4-oxo-2-sulfanylideneimidazolidin-1-yl}-2-fluoro-N-methylbenzamide]
AUC(0-inf) (clinical): 86.9 µg·h/mL | AUC(0-t) (clinical): 86.8 µg·h/mL | Cmax (clinical): 4520 ng/mL | AUC(0-t) (clinical; 160 mg, AUC0-336h, Mean): 239 µg·h/mL | AUC(0-t) (clinical; 160 mg, AUC0-336h, Median): 233 µg·h/mL | AUC(0-t) (clinical; 160 mg, AUC0-t, Mean): 258 µg·h/mL | AUC(0-t) (clinical; 160 mg, AUC0-t, Median): 254 µg·h/mL | AUC(0-inf) (clinical; 160 mg, AUCinf, Geometric LS Mean): 257 µg·h/mL | AUC(0-inf) (clinical; 160 mg, AUCinf, Mean): 262 µg·h/mL | AUC(0-inf) (clinical; 160 mg, AUCinf, Median): 259 µg·h/mL | Cmax (clinical; 160 mg, Cmax, Geometric LS Mean): 4860 ng/mL | Cmax (clinical; 160 mg, Cmax, Mean): 4930 ng/mL | Cmax (clinical; 160 mg, Cmax, Median): 5140 ng/mL | Vd/F (clinical; 160 mg, Mean): 79.8 L | Vd/F (clinical; 160 mg, Median): 78.1 L | half-life (clinical; 160 mg, t1/2, Mean): 3.75 days | half-life (clinical; 160 mg, t1/2, Median): 3.57 days | Tmax (clinical; 160 mg, Mean): 64.7 min | Tmax (clinical; 160 mg, Median): 54.6 min | AUC0-336hr lower in the presence of rifampin [1]: 63% | AUCinf lower in the presence of rifampin [1]: 66% | % AUC (percentage extrapolated), range of individual values ([1]; 160 mg): 0.658-4.56% | CL/F, Mean ([1]; 160 mg): 0.6330 L/h | CL/F, Median ([1]; 160 mg): 0.6184 L/h | Inductive effect on CYP3A4 (pharmacodynamic assessment) (CYP3A4): minimal inductive effect

CO[C@H]1/C=C/O[C@@]2(C)Oc3c(C)c(O)c4c(O)c(c(/C=N/N5CCN(C)CC5)c(O)c4c3C2=O)NC(=O)/C(C)=C\C=C\[C@H](C)[C@H](O)[C@@H](C)[C@@H](O)[C@@H](C)[C@H](OC(C)=O)[C@@H]1C [Rifampin, rifampin]
AUC ([2]; read-out: AUCtau, Mean): 35600 ng·h/mL | AUC ([2]; read-out: AUCtau, Median): 35200 ng·h/mL | concentration at 2 h ([2]; read-out: C2h, Mean): 6760 ng/mL | concentration at 2 h ([2]; read-out: C2h, Median): 6620 ng/mL | Cmax ([2]; read-out: Cmax, Mean): 7160 ng/mL | Cmax ([2]; read-out: Cmax, Median): 7040 ng/mL | Tmax ([2]; read-out: tmax, Mean): 1.72 h | Tmax ([2]; read-out: tmax, Median): 2 h | Cmin, Mean [2]: 0 µg/mL

CC1(C)C(=O)N(c2ccc(C#N)c(C(F)(F)F)c2)C(=S)N1c1ccc(C(N)=O)c(F)c1 [M2, N-desmethyl enzalutamide]
AUC0-336hr higher in the presence of rifampin ([3]; compared to enzalutamide alone): 15% | AUCinf lower in the presence of rifampin ([3]; compared to enzalutamide alone): 15% | Cmax higher in the presence of rifampin ([3]; compared to enzalutamide alone): 34% | AUCinf, Geometric LS Mean [3, 4]: 349.3 µg·h/mL | Cmax, Geometric LS Mean [3, 4]: 0.7370 µg/mL | AUC0-336h, Mean [3, 5]: 197.6 µg·h/mL | AUC0-336h, Median [3, 5]: 184.1 µg·h/mL | AUC0-t, Mean [3, 5]: 344.3 µg·h/mL | AUC0-t, Median [3, 5]: 338.3 µg·h/mL | AUCinf, Mean [3, 5]: 354.0 µg·h/mL | AUCinf, Median [3, 5]: 351.0 µg·h/mL | Cmax, Mean [3, 5]: 0.7546 µg/mL | Cmax, Median [3, 5]: 0.7145 µg/mL | MPR (MWC): metabolite versus parent ratio (molecular weight corrected), Median [3, 5]: 1.373 | t1/2, Mean [3, 5]: 190.4 h | t1/2, Median [3, 5]: 182.1 h | tmax, Mean [3, 5]: 161.3 h | MPR (MWC): metabolite versus parent ratio (molecular weight corrected), Mean [3, 5]: 1.385 and 1.431 | AUC0-336h, Mean [3, 6]: 224.0 µg·h/mL | AUC0-336h, Median [3, 6]: 221.9 µg·h/mL | AUC0-t, Mean [3, 6]: 292.1 µg·h/mL | AUC0-t, Median [3, 6]: 293.5 µg·h/mL | AUCinf, Mean [3, 6]: 297.9 µg·h/mL | AUCinf, Median [3, 6]: 299.4 µg·h/mL | Cmax, Mean [3, 6]: 0.9949 µg/mL | Cmax, Median [3, 6]: 1.010 µg/mL | MPR (MWC): metabolite versus parent ratio (molecular weight corrected), Median [3, 6]: 3.372 | t1/2, Mean [3, 6]: 154.7 h | t1/2, Median [3, 6]: 152.5 h | tmax, Mean [3, 6]: 66.75 h | tmax, Median [3, 6]: 71.86 h | MPR (MWC): metabolite versus parent ratio (molecular weight corrected), Mean [3, 6]: 3.443 and 3.558

CC1(C)C(=O)N(c2ccc(C#N)c(C(F)(F)F)c2)C(=S)N1c1ccc(C(=O)O)c(F)c1 [M1]
AUC0-336hr lower in the presence of rifampin [1]: 15% | AUCinf lower in the presence of rifampin [1]: 32% | AUC0-336h, Mean ([1]; 160 mg): 32.49 µg·h/mL | AUC0-336h, Median ([1]; 160 mg): 31.38 µg·h/mL | AUC0-t, Mean ([1]; 160 mg): 47.87 µg·h/mL | AUC0-t, Median ([1]; 160 mg): 46.66 µg·h/mL | AUCinf, Geometric LS Mean ([1]; 160 mg): 59.62 µg·h/mL | AUCinf, Mean ([1]; 160 mg): 62.14 µg·h/mL | AUCinf, Median ([1]; 160 mg): 57.39 µg·h/mL | Cmax, Geometric LS Mean ([1]; 160 mg): 0.1346 µg/mL | Cmax, Mean ([1]; 160 mg): 0.1414 µg/mL | Cmax, Median ([1]; 160 mg): 0.1350 µg/mL | t1/2, Mean ([1]; 160 mg): 223.9 h | t1/2, Median ([1]; 160 mg): 236.6 h
